The text below walks through data of a melting point compilation (Tetko et al.; mined from patent text by program, amines drawn as free bases though some values may be those of a salt).

`O=C1CCCc2c1c1cccc3c1n2CCC3` showed a melting point of 160 to 164 °C.

`Cc1nn(C)c2c(O)nc(C(C)C)nc12` gave a melting point of 264 to 266 °C.

Molecule `COc1c(OCC(F)(F)C(F)(F)F)ccnc1CSc1nc2ccccc2[nH]1` returned a melting point of 116 to 117 °C.

`Cc1cccc(NC(=O)CN2CCN(c3ccccc3[N+](=O)[O-])CC2)c1` returned a melting point of 172 to 175 °C.

`C=C(C(=O)c1ccc(C(=O)O)cc1)c1cc(OC)c(OC)c(-c2cccs2)c1`: the melting point was 156 to 157 °C.

Take `Cc1nc(-c2cccc3ccccc23)n2cn[nH]c(=O)c12`: the melting point is 261 to 263 °C.

Regarding `CCCCCCCCCCS(=O)(=O)NC(=O)c1cnc(C(N)=O)c(OC)c1`, the melting point came out at 145 °C.

For the molecule `CC(=Cc1ccccc1)c1ccc2c(c1)C(C)(C)CCS2`, the melting point was 81 to 83 °C.

Consider `CCCCCCNc1nc(SC)[nH]c2nccc1-2`, for which the melting point stood at 118 °C.

On to `CCCc1cc(C(O)=S)cc(N)c1C(=O)c1ccccc1`, for which the melting point was 124 to 126 °C.

In turn, `COc1cccc2c(NCc3ccccc3C)nccc12` yielded a melting point of 121 to 125 °C.

`CCn1nc(C)c2c1C1=NC(C)CN1C(C)=N2` (configuration not stated): the melting point lay in the range of 145 to 147 °C.

With `Clc1ccc2nc3c(nc2c1)N1CCCCC1CO3` (configuration not stated), the melting point was in the range of 147 to 149 °C.

Regarding `CCCC1=NN(c2cccnc2)C(=O)C1=CNc1ccccc1CC`, the melting point is 144 °C.

For the molecule `O=S(=O)(NCCCCOc1ccc(-n2ccnc2)cc1)c1ccc(I)cc1`, the melting point is 150 to 152 °C.

In the case of `CON=CC1=CCCN(C(=O)OCCc2ccc([N+](=O)[O-])cc2)C1`, the melting point is 93 to 94 °C.

For the molecule `O=C(O)CNC(=O)Nc1ccc(CC(=O)OCc2ccccc2)cc1`, the melting point stood at 192 °C.

Regarding `CNS(=O)(=O)c1cc(OC)c(OC)c(C(=O)NCC2CCCN2C)c1` (configuration not stated), the melting point fell in the range of 111 to 112 °C.

Regarding `O=C1CC(c2cccc(-n3ccnc3)c2)=Nc2cc(CO)c(C#Cc3ccccc3)cc2N1`, the melting point was found to be 227 °C.

`Cc1ccc(CN(C)C(=O)C23CC4CC(CC(C4)C2)C3)cc1` showed a melting point of 93 to 95 °C.

With `C=CCOC(=O)CCc1cc(C(C)(C)C)c(O)c(C(C)(C)C)c1`, the melting point stood at 40 °C.

`COc1ccc(C(=O)N2CCCCC2)c(NC(=O)N[C@@H](Cc2ccc(NC(=O)c3c(Cl)cccc3Cl)cc2)C(=O)O)c1` yielded a melting point of 176 °C.

Regarding `Cc1cc(C)c(C(=O)P(=O)(Cc2ccccc2)c2ccccc2)c(C)c1` (configuration not stated), the melting point lay in the range of 113 to 114 °C.

Consider `Cc1cc(F)cc2c1-c1ccc(F)cc1C21NC(=O)NC1=O` (configuration not stated), for which the melting point was more than 320 °C.

For the molecule `Cc1ccc(-c2[nH]c(C3CCCCC3)nc2C(=O)Nc2nccs2)cc1`, the melting point lay within 199 to 200 °C.

Turning to `COc1cc2c(cc1OC)C1(CCC(C(=O)O)(C(=O)O)CC1)N(C(=O)OCc1ccccc1)CC2`, the melting point fell in the range of 181 to 182 °C.

`Oc1ccc2cc(-c3noc4ccc(O)cc34)ccc2c1` returned a melting point of 250 to 252 °C.

Molecule `O=C(NCc1ccccc1)c1ccnc(N2CCN(Cc3ccc(F)cc3)C2=O)c1` registered a melting point of 99 to 101 °C.

In turn, `CCC(Br)=C1NC(=O)N(C(C(=O)Nc2cc(NC(=O)C(CC)Oc3ccc(C(C)(C)CC)cc3C(C)(C)CC)ccc2Cl)C(=O)C(C)(C)C)C1=O` (configuration not stated) came in with a melting point of 129 to 131 °C.

With `C=CCc1ccc(OCCC(C)C)c2c(=O)cc(-c3nnnn3Cc3ccccc3)oc12`, the melting point was 92.5 to 94 °C.

In the case of `O=C1NC(=O)N(CCCc2ccccc2)C1O` (configuration not stated), the melting point lay within 131 to 132 °C.

For `CC(CC(=O)c1cccc(Cl)c1)C(=O)O` (configuration not stated), the melting point fell in the range of 100 to 102 °C.

In the case of `CNc1nc(Cl)cc(Cl)n1`, the melting point fell in the range of 157 to 158 °C.

Turning to `Oc1ccc(CCCn2ccnc2)cc1`, the melting point fell in the range of 158 to 160 °C.

In turn, `Cc1cc(Cl)ccc1NC(=S)Nc1ncccc1OCc1c(F)cccc1Cl` returned a melting point of 176 to 177 °C.

Turning to `C#CCc1c(C)nc2c(NCc3c(C)cccc3NC(=O)OC)cccn12`, the melting point fell in the range of 149 to 150 °C.

On to `Cc1oc(-c2ccccc2)nc1COc1ccc(Sc2nc(-c3ccccc3)c(CCC(=O)O)o2)cc1`, for which the melting point was 136 to 137 °C.

For `COc1ccc(-c2cc3cc(OC)cc(CC(F)(F)F)c3o2)cc1`, the melting point was in the range of 113 to 115 °C.

Molecule `COC1=C(OC)C(=O)C2=C(CCC(CCOc3cc(OC)cc(OC)c3)CC2)C1=O` had a melting point of 63 to 65 °C.

As to `Cn1cc(C(=O)NCc2ccc(Cl)cc2)c(=O)c2cc(CN3CCOCC3)cc(C#Cc3ccccn3)c21`, the melting point lay in the range of 234 to 236 °C.

Turning to `COCc1ccc(C)c(NC(=O)CC23CC4CC(CC(C4)C2)C3)c1`, the melting point was 127 to 128 °C.

`CNS(=O)(=O)c1cc(C(=O)CCl)ccc1Cl` displayed a melting point of 153 °C.

In the case of `COC(=O)/C=C/c1nc(C(=O)OC)ccc1OC`, the melting point was 123 to 126 °C.

For the molecule `CCc1nc2c3c(c(C(=O)N(C)C)c(-c4ccccc4)c2n1C)CCCO3`, the melting point lay in the range of 195 to 197 °C.

Take `CCOC(=O)c1[nH]c(C)c(-c2ccc(F)cc2)c1C`: the melting point is 174 to 175 °C.

Molecule `COc1ccc(-n2nnc(-c3ccc(Cl)cc3C(F)(F)F)c2N)cc1` returned a melting point of 159 to 160 °C.

For the molecule `C[C@H](NC(=O)OC(C)(C)C)C(=O)N[C@H]1CCNC1`, the melting point lay in the range of 137 to 138 °C.

The molecule `CC(C)(C)NS(=O)(=O)c1sc([Si](C)(C)C)cc1C(F)=C(F)C(F)(F)F` displayed a melting point of 92 to 94 °C.

`CCCn1c(=O)[nH]c(=O)c2[nH]c(/C=C/c3cc(OC)c(OC)c(OC)c3)nc21` displayed a melting point of 286 to 291 °C.

Molecule `O=C(O)c1cc(Br)cc2c1NCCS2=O` (configuration not stated) had a melting point of 254 to 255 °C.

In the case of `CC(C)n1nc(C#Cc2ccc(F)cc2)ccc1=O`, the melting point was 106 °C.

`CCOC1OC(O)C(F)(F)C(F)(F)C1(F)F` (configuration not stated) registered a melting point of 84 to 86 °C.

Take `O=C(c1cccs1)c1cnn2c(-c3cccc(-c4nnn(Cc5ccccn5)n4)c3)ccnc12`: the melting point was 184 °C.

As to `COc1ccc2[nH]cc(CCNC(=O)C(F)(F)F)c2c1`, the melting point was in the range of 135 to 136 °C.

Regarding `Cn1c(=O)cc(CCc2ccc(Cl)s2)c2cc(C(N)(c3ccc(Cl)cc3)c3cccnc3)ccc21` (configuration not stated), the melting point came to 100 °C.

As to `COc1ccc2c(c1)c(CC(=O)NN)cn2Cc1ccccc1`, the melting point fell in the range of 143 to 144 °C.

With `CCCCc1nn(-c2ccccc2C(F)(F)F)c(=O)n1Cc1ccc(-c2ccccc2S(=O)(=O)NC(=O)C(F)(F)F)cc1`, the melting point was in the range of 125 to 127 °C.

`COCCNC(=O)c1cccc(-c2ccc3c(c2)C(c2cc(Cl)ccc2Cl)CC3)c1` (configuration not stated): the melting point was determined as 116 °C.

Take `COC(=O)c1cc(NC(=O)C2=C(C)OCCS2)ccc1Cl`: the melting point is 115 to 117 °C.

`COC(=O)CCC(CS(=O)(=O)c1ccc2ccccc2c1)C(=O)N(CCC1CCCCC1)CCC1CCCCC1` (configuration not stated) displayed a melting point of 116 to 118 °C.

`O=C(O)c1ccc(C(c2ccc(C(=O)O)cc2)(c2ccc(C(=O)O)cc2)C(F)(F)F)cc1` registered a melting point of 366 to 367 °C.

For the molecule `CC(C)(C)NC(=O)[C@@H]1CCCN1C(=O)[C@@H](O)[C@H](Cc1ccccc1)NC(=O)[C@H](CC(N)=O)NC(=O)COc1ccc(NC(=O)CN2CCOCC2)cc1`, the melting point lay in the range of 121 to 127 °C.

`O=C(CCc1c(O)c2ccccc2oc1=O)c1ccccc1` came in with a melting point of 149 to 151 °C.

`CC1(C)CCC(C)(C)c2cc(-c3cc4ccc(C(=O)O)cc4[nH]3)ccc21` displayed a melting point of 215 °C.

In turn, `N#Cc1c(N2CCN(C(=O)c3cccs3)CC2)c2cc(Cl)cnc2n(CC(=O)c2ccccc2)c1=O` registered a melting point of 316 °C.

For `CC1(C)OC(=O)C[C@H]2NC(=O)[C@H]21`, the melting point fell in the range of 180 to 182 °C.

`O=Cc1cc(Cc2cccnc2)ccc1O`: the melting point fell in the range of 130 to 132 °C.

Molecule `CC(C)(C)OC(=O)Nc1ccc(N2CCNCC2)cc1` yielded a melting point of 155 to 157 °C.

Molecule `NC(=O)CNC(=S)Nc1ccccc1` came in with a melting point of 150 to 152 °C.

With `CCC1CCc2[nH]cc3c(=O)n(-c4ccc(Cl)cc4)nc-3c2C1` (configuration not stated), the melting point fell in the range of 318 to 320 °C.

As to `COc1cc(Cc2ccc3nc(N)nc(N)c3c2)cc(OC)c1`, the melting point was 230 to 232 °C.

`Fc1ccc(NC(=S)Nc2nc3ccc(OC(F)(F)F)cc3s2)cc1` gave a melting point of 207 °C.

`CC(=O)NC[C@H]1CN(c2ccc3c(c2)CS(=O)(=O)N3C)C(=O)O1` gave a melting point of 84 to 86 °C.

Molecule `CC1(C)[C@@H](C(=O)Nc2ccncc2)[C@@H]1c1ccc(S(N)(=O)=O)cc1` (relative stereo) gave a melting point of 270 to 274 °C.

For `COC(=O)COc1cc(N(C(=O)CCl)C(=O)C2=C(C(=O)OC)CCCC2)c(F)cc1Cl`, the melting point is 144 to 145 °C.

For `COc1ccc2[nH]c3c(c2c1)C[C@@]1(C)C(=O)N(CCBr)C(=O)N1[C@@H]3c1cccc(O)c1` (racemic), the melting point is 299 to 302 °C.

In the case of `Cc1ccc(C(C#N)C(=O)C(=O)C(C#N)c2ccc(C)cc2)cc1` (configuration not stated), the melting point was in the range of 246 to 250 °C.

Molecule `N#Cc1cc(Cl)cc(Cl)c1Cl` returned a melting point of 77 to 78 °C.

Regarding `Cc1ccc(C)c(P(=O)(C(=O)c2c(Cl)cccc2Cl)C(=O)c2c(Cl)cccc2Cl)c1`, the melting point turned out to be 172 °C.

On to `O=C1CCc2cc(C(=O)[C@H]3C[C@H]3C(=O)O)ccc2N1` (relative stereo), for which the melting point lay in the range of 190 to 194 °C.

`CC(C)C(=O)c1ccc2c(c1)CC(N1C(=O)c3ccccc3C1=O)C2` (configuration not stated): the melting point lay within 138 to 140 °C.

In the case of `CCCNC(=O)c1ccsc1N=C(OCCC)OCCC`, the melting point was 57 to 58 °C.

In the case of `COC(=O)c1cc(C2CCCO2)c(C(F)(F)F)cc1N` (configuration not stated), the melting point fell in the range of 131 to 136 °C.

`Nc1cccc2c1C(Cc1ccnc(F)c1)(Cc1ccnc(F)c1)c1ccccc1-2` gave a melting point of 182 to 184 °C.

`CCCCOC(=O)Nc1nc2ccccc2c2c1nc(CC)n2CCCCNS(C)(=O)=O` showed a melting point of 164 to 166 °C.

For `Cc1nc(C)c(Cl)c(NCc2ccc(OCCn3c([N+](=O)[O-])cnc3C)cn2)n1`, the melting point fell in the range of 182 to 184 °C.

The molecule `COc1cc2c(cc1Nc1ncc(Cl)c(N[C@H]3[C@@H](C(N)=O)[C@@H]4C=C[C@H]3C4)n1)NCCN(CC1CC1)C2` gave a melting point of 149 to 151 °C.

One may read the melting point as the temperature, or range, at which the solid turns liquid.
